Results from ChEMBL document CHEMBL4014293, “Highly oxygenated antiausterity agents from the leaves of Uvaria dac” (2017).
Calls of active or inactive are those of the source. The calls are words filed in the database; no cut-off is given here.

Key:
MIA PaCa-2 = assay: Antiausteritic activity against human MIAPaCa2 cells in nutrient deprived medium after 24 hrs by WST8 assay; format: functional
KLM1 = assay: Antiausteritic activity human KLM1 cells in nutrient deprived medium after 24 hrs by WST8 assay; format: functional
CAPAN-1 = assay: Antiausteritic activity against human Capan1 cells in nutrient deprived medium after 24 hrs by WST8 assay; format: functional
PSN1 = assay: Antiausteritic activity against human PSN1 cells in nutrient deprived medium after 24 hrs by WST8 assay; format: functional
PANC-1 [1] = assay: Antiausteritic activity against human PANC1 cells in nutrient deprived medium after 24 hrs by WST8 assay; format: functional
PANC-1 [2] = assay: Antiausteritic activity against human PANC1 cells in nutrient deprived medium assessed as induction of morphological changes at 25 to 50 uM after 24 hrs by ethidium bromide/acridine orange staining based fluorescent/phase contrast microscopic method; format: functional, cell-based

Compound | Activity (MIA PaCa-2) | Activity (KLM1) | Activity (CAPAN-1) | Activity (PSN1) | Activity (PANC-1 [1]) | PC50 (MIA PaCa-2) [µM] | PC50 (CAPAN-1) [µM] | Activity (PANC-1 [2]) | PC50 (PSN1) [µM] | PC50 (PANC-1 [1]) [µM]
CCCCCCCCCCCCCCCCCC(=O)O[C@@H]1C=C(COC(=O)c2ccccc2)[C@@H](O)[C@H](O)[C@H]1OC(=O)c1ccccc1 | Dose-dependent effect | Dose-dependent effect | Dose-dependent effect | Dose-dependent effect | Dose-dependent effect |  |  |  |  | 
O=C(OCC1=C[C@@H](OC(=O)c2ccccc2)[C@H](OC(=O)c2ccccc2)[C@@H](O)[C@@H]1O)c1ccccc1 | Dose-dependent effect | Dose-dependent effect | Dose-dependent effect | Dose-dependent effect | Dose-dependent effect |  |  |  |  | 
O=C(OCC1=C[C@@H](OC(=O)c2ccccc2)[C@H](O)[C@@H](OC(=O)c2ccccc2)[C@@H]1O)c1ccccc1 | Dose-dependent effect | Dose-dependent effect | Dose-dependent effect | Dose-dependent effect | Dose-dependent effect | 29.1 | 73 | Active | 9.7 | 20.1
CCCCCCCCCCCCCCCCCC(=O)O[C@@H]1C=C(COC(=O)c2ccccc2)[C@@H](O)[C@H](OC(=O)c2ccccc2)[C@H]1O | Dose-dependent effect | Dose-dependent effect | Dose-dependent effect | Dose-dependent effect | Dose-dependent effect |  |  |  |  | 
